Data reported in patent publication US11345666B2, “Phenyl and pyridinyl substituted imidazoles as modulators of RORγT” (Janssen Pharmaceutica NV, priority 2018, dated 2022).
One block for each compound: values may come before it.

Experiments:
[1] = tested on: Th17-dependent learned helplessness; settings: mice; cited from earlier work
obese diabetic mice = settings: cited from earlier work
[2] = target: human RORγt ligand binding domain (RORγt LBD) (Homo sapiens (Human), UniProt P51449); experiment: RORγt ThermoFluor assay
Method in brief: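 Thermal shift of His-tagged human RORγt LBD (0.065 mg/mL) with 60 μM 1,8-ANS in 100 mM Hepes pH 7.0, 10 mM NaCl, 2.5 mM GSH, 0.002% Tween-20, heated at 1° C./min. Compounds in 1:2 series from a 10 mM DMSO stock; KD estimated from ΔTm using protein unfolding thermodynamics.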

full-length human RORγt = full-length human RORγt (Homo sapiens (Human), UniProt P51449); experiment: RORγt (full-length human) reporter assay, conditions A or B; type: cell-based; settings: for IC50: HEK293T cells, read-out: RORγt (FL) Reporter Assay A or B, IC50
Method in brief: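 HEK293T cells transiently co-transfected (PEI) with GAL4-DBD–RORγt, GAL4-firefly luciferase and CMV-Renilla reporters; condition A 35,000 cells/well, 170.5 ng DNA/well; condition B 8750 cells/well, 42.6 ng DNA/well.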

Chain of human RORγt ligand binding domain (RORγt LBD) (P51449 other isoform, or with tags, fused parts or gaps): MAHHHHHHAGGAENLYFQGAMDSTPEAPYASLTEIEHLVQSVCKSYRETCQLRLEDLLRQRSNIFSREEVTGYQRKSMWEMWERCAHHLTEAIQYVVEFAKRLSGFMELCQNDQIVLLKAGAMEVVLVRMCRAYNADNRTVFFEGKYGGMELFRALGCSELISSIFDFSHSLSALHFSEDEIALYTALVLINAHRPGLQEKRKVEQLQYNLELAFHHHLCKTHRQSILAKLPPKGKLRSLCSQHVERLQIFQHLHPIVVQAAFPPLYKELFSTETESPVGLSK
Chain of full-length human RORγt (P51449 other isoform, or with tags, fused parts or gaps): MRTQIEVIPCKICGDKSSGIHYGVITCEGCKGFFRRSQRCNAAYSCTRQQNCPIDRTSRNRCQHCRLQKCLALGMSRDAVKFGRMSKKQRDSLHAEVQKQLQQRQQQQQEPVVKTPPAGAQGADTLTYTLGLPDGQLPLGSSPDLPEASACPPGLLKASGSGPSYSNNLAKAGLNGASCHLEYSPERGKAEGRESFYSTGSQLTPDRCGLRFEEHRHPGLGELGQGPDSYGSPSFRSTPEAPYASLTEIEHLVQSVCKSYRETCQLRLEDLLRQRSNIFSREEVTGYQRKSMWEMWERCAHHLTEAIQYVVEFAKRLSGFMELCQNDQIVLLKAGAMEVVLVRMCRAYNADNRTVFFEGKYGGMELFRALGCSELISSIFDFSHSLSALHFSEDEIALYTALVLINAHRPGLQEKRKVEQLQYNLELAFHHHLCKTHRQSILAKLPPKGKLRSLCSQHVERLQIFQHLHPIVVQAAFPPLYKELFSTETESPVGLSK

SMILES: CC(=O)Nc1nc(C)c(S(=O)(=O)Nc2ccc(C(O)(C(F)(F)F)C(F)(F)F)cc2)s1 [SR1001]
Th17-dependent learned helplessness [1]: reduced

SMILES: CC(=O)N1CCN(Cc2ccc(-c3ccc(C(O)(C(F)(F)F)C(F)(F)F)cc3)cc2)CC1 [SR1555]
body weight (obese diabetic mice): reduced
fat mass (obese diabetic mice): significant reduction
food intake (obese diabetic mice): modest reduction
insulin sensitivity (obese diabetic mice): improved

Kd [2]: 0.42 nM
inhibition at 0.67 µM (full-length human RORγt; 0.67 μM compound concentration (****), read-out: RORγt (FL) Reporter Assay A or B, % inhibition): 101%
IC50 (full-length human RORγt): 7.9 nM
SMILES: C#Cc1c(C(=O)NC[C@]2(C#N)CC[C@@H](S(C)(=O)=O)CC2)nc(CC)n1-c1ccc(CC(C)(C)C(F)(F)F)cc1OC(F)F [Example 39, N-(((1s*,4s*)-1-Cyano-4-(methylsulfonyl)cyclohexyl)methyl)-1-(2-(difluoromethoxy)-4-(3,3,3-trifluoro-2,2-dimethylpropyl)phenyl)-2-ethyl-5-ethynyl-1H-imidazole-4-carboxamide]

SMILES: CCc1nc(C(=O)NC[C@]2(O)CC[C@@H](S(C)(=O)=O)CC2)c(Cl)n1-c1ccc(CC(C)C)cc1OC (single isomer, unassigned) [Example 92, 5-Chloro-2-ethyl-N-(((1s,4S)-1-hydroxy-4-(methylsulfonyl)cyclohexyl)methyl)-1-((R*)-4-isobutyl-2-methoxyphenyl)-1H-imidazole-4-carboxamide]
Kd [2]: 0.28 nM
IC50 (full-length human RORγt): 7 nM
inhibition at 6 µM (full-length human RORγt; read-out: RORγt (FL) Reporter Assay A or B, % inhibition @ 6 μM, 6 μM compound concentration): 72%

SMILES: CCc1nc(C(=O)NC[C@@H]2CC[C@@H](S(C)(=O)=O)C[C@H]2O)c(Cl)n1-c1ncc(CC(C)(C)C(F)(F)F)cc1OC(F)F (single isomer, unassigned) [Example 59, 5-Chloro-1-(3-(difluoromethoxy)-5-(3,3,3-trifluoro-2,2-dimethylpropyl)pyridin-2-yl)-2-ethyl-N-(((1S*,2R*,4R*)-2-hydroxy-4-(methylsulfonyl)cyclohexyl)methyl)-1H-imidazole-4-carboxamide]
Kd [2]: 12 nM
IC50 (full-length human RORγt): 65 nM
inhibition at 3 µM (full-length human RORγt; read-out: RORγt (FL) Reporter Assay A or B, % inhibition, 3 μM compound concentration (*)): 104%
